From BindingDB's records for doi:10.1080/14756360109162375 (University of North Carolina, 2001) come the findings set out here.

The target of this assay is T1, N(4)-(beta-N-acetylglucosaminyl)-L-asparaginase (Homo sapiens, UniProt P20933).
T1 sequence (P20933 whole entry): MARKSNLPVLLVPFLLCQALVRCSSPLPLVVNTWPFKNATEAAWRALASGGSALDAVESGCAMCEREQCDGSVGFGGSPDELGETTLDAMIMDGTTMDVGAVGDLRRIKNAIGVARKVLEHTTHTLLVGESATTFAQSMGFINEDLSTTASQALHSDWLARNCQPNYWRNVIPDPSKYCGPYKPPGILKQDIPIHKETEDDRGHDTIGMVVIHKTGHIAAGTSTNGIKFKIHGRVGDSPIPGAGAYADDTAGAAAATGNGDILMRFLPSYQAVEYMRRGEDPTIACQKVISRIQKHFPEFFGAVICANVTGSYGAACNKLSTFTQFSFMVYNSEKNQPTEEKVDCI
As to the kind of experiment: Inhibition Assay. Particulars: pH 5.8; 37 °C. The method, then: Glycosylasparaginase activity was measured in citrate-phosphate buffer at pH 5.8 at 37 C. N-Acetyl-D-glucosamine released during the reaction was measured using the Morgan-Elson assay.

For orientation: Ki means a measure of affinity in units of concentration, obtained from inhibition or displacement. For `O=C(O)CC(Cl)C(=O)O` [L-2-Chlorosuccinic acid, 3], the affinity corresponds to a Ki of 7700 µM.

The compound `N[C@@H](CC(=O)O)C(=O)O` [L-Aspartic acid, 2] returned a Ki of 600 µM.

Consider `CC(=O)NC1C(NC(=O)CCl)OC(CO)C(O)C1O` (stereo not given) [GlcNAc-Asn analogue, 11], for which the Ki turned out to be 640 µM.

In turn, `N[C@H](CS(=O)(=O)O)C(=O)O` [L-cysteic acid] yielded a Ki of 1400 µM.

Compound `CC(=O)NC1C(NC(=O)CBr)OC(CO)C(O)C1O` (stereo not given) [GlcNAc-Asn analogue, 12] returned a Ki of 560 µM.

As for `CC(CC(=O)O)C(=O)O` [D,L-2-Methylsuccinic acid, 5], the Ki was found to be 700 µM.

On to `O=C(O)CC(Br)C(=O)O` [L-2-bromosuccinic acid, 4], for which the Ki turned out to be 2700 µM. Against the preceding compound, the Ki is about 3.9-fold higher.

The compound `CC(=O)NC1C(NC(=O)CN)OC(CO)C(O)C1O` (stereo not given) [GlcNAc-Asn analogue, 10] registered a Ki of 750 µM. Against the preceding compound, the Ki is about 3.6-fold lower.

`N[C@H](CP(=O)(O)O)C(=O)O` [CAS_23052-80-4]: the affinity corresponds to a Ki of 900 µM.

Take `O=C(O)CCC(=O)O` [Succinic acid, 6]: the Ki came to 5000 µM.
